Measured values: the NIST ThermoML archive (doi:10.1016/j.jct.2019.04.023)

Assay: xn = mol fraction of the nth substance listed
Details: 101 kPa, Liquid; for viscosity: Falling or rolling sphere viscometry; for mass density: Vibrating tube method

CC[N+](CC)=C(N(C)C)N(C)C.O=S(=O)([N-]S(=O)(=O)C(F)(F)F)C(F)(F)F + CCO
Details | mass density, 293.15 K [kg/m3] | mass density, 298.15 K [kg/m3] | mass density, 303.15 K [kg/m3] | viscosity, 293.15 K [mPa·s] | viscosity, 298.15 K [mPa·s] | viscosity, 303.15 K [mPa·s] | viscosity, 308.15 K [mPa·s]
x1 = 0.0995 | 1018.97 | 1014.27 | 1009.56 | 2.764 | 2.453 | 2.19 | 1.964
x1 = 0.1987 | 1136.2 | 1131.43 | 1126.67 | 5.261 | 4.596 | 4.044 | 3.583
x1 = 0.299 | 1207.9 | 1203.13 | 1198.38 | 9.359 | 8.052 | 6.99 | 6.102
x1 = 0.3991 | 1256.11 | 1251.35 | 1246.63 | 13.81 | 11.82 | 10.23 | 8.914
x1 = 0.5075 | 1293.66 | 1288.9 | 1284.19 | 20.03 | 16.96 | 14.53 | 12.57
x1 = 0.5956 | 1316.86 | 1312.11 | 1307.39 | 26.34 | 22.12 | 18.83 | 16.19
x1 = 0.7065 | 1339.41 | 1334.68 | 1329.99 | 36.42 | 30.22 | 25.47 | 21.69
x1 = 0.7983 | 1353.71 | 1348.98 | 1344.3 | 47.01 | 38.69 | 32.25 | 27.29
x1 = 0.9106 | 1367.67 | 1362.96 | 1358.3 | 62.04 | 50.44 | 41.52 | 34.83
x1 = 0.951 | 1372.2 | 1367.5 | 1362.85 | 70.47 | 56.94 | 46.62 | 38.87
x1 = 1 | 1377.86 | 1373.16 | 1368.51 | 81.02 | 65.01 | 52.96 | 43.84
